The test system of experiment [1] is LPS induced IL-23 (p19/p40) in DC cells differentiated from human PBMC. In words: IL23-p19 ELISA, dendritic cells (DC differentiated from human PBMC), IFNγ primed, LPS stimulated. In kind it is cell-based. The conditions noted are these: human PBMC-derived dendritic cells, 1 μg/ml LPS, 18 hours, 10 pt. How it is done: Compound Screening Using DC Cells
1. Differentiation of PBMC's to DC Cells:
Human PBMC cells (400 million) obtained from the vendor were transferred into a T-175 flask containing 15 ml RPMI media (10% FBS) and incubate for 2 hours at 37° C. After 2 hours, the media including floating cells was aspirated out carefully and 12 ml of fresh RPMI media (10% FBS) containing GMCSF (100 ng/ml) and IL4 (20 ng/ml) was added, and the flask was kept in a 37° C. incubator for 7 days.
After 3 days, fresh GMCSF (100 ng/ml) and IL4 (20 ng/ml) were added to the flask and the incubation continued. After 7 days, the fully differentiated cells were harvested by spinning down (1200 rpm/5 min) and aspirating the media. The cells were suspended in fresh RPMI media (10% FBS) containing 50 ng/ml IFNγ (1000 U/ml) and then plated (50K/well in 100 μl) onto a white clear bottom 96 well plate and left in a 37° C. incubator for 24 hours.
2. Addition of Compounds:
After 24 hours incubation, 100 μl of RPMI media was added containing 2× concentrated test compound per well to the above cell-culture media (final concentration becomes 1×) and the plates were pre-incubated for 1 hour at 37° C. before stimulating with LPS.
After 1 hour compound pre-incubation, 10 μl per well of 20× concentrated LPS solution in RPMI media was added to give a final concentration of 1 μg/ml. The mixture was shaken and incubated the plates at 37° C. for an additional 18 hours.
155 μl of the supernatant was harvested from each well carefully (without the tip touching the bottom of the well) and to the remaining 50 μl/well of the cell culture plate was added 50 μl of Cell Titer Glo reagent. The mixture was incubated for 1-2 minutes on a shaker and the plate was read for luminescence intensity to determine the compound cytotoxicity. The cell culture supernatant collected above was used to carry out IL23 ELISA (65 μl-Supernatant) and IL10 ELISA (90 μl-Supernatant) as described below.
Human IL-23 (p19/p40) ELISA Protocol (e-Biosciences)
To 10.5 ml PBS add 50 μl of anti-IL23 (p19) was added capture antibody (2.5 μg/ml). The mixture was mixed well and 100 μl of the coating solution was added to each well of the 96 well white plates from Pierce. The wells were covered and incubated overnight at 4° C.
The anti-IL23 (p19)-antibody-coated plates were washed 2× using TBST (use plate washer) and blocked using 200 μl of 0.5% Casein for 1.5-2 hours at room temperature with shaking.
The plates were washed 2× using TBST and the supernatant was transferred (65 μl/well) to the above pre-blocked/IL23 (p19)-antibody-coated 96 well plate, and incubated at room temperature for 1.5 hours with shaking.
The plates were washed 4× using TBST (plate washer) and 100 μl/well detection antibody solution prepared from 2 μl of biotin labeled anti-IL-12 (p40/p70) antibody in 11 ml 1% BSA/PBS solution (1-5000 dilution) was added. The plates were incubated for 1 hour with shaking at room temperature.
Again, the plates were washed 4× with TBST and 100 μl of HRP labeled Streptavidin (R&D Systems) solution (10 μl/10 ml 1% BSA solution) was added, and the plates were incubated at room temperature for another 45 minutes with shaking.
After 45 minutes, the plates were washed with TBST 4× and 100 ul/well Super Signal ELISA Pico Chemiluminescent Substrate from Pierce (3.5 ml A+3.5 ml B+3.5 ml MQ water) was added. The plates were shaken for 1-2 minutes then read on a plate reader.

The test system of experiment [2] is LPS induced IL23p19 in THP-1 cells. In words: LPS Induced IL23p19 in THP-1 Cells (with IFNγ Primed) Assay. The class given is cell-based. The settings on record: Homo sapiens; THP-1 cells primed with IFNγ 50 ng/mL, 1 μg/mL LPS, 18 hours, 10 pt; read-out: IL23-p19 ELISA, THP1-IFNy, LPS, 10 pt EC50. An excerpt:
LPS Induced IL23p19 in THP-1 Cells (with IFNγ Primed) Assay
THP-1 Cells (ATCC, Cat # TIB-202), Dimethyl Sulfoxide (DMSO) (Sigma-Aldrich, Cat # D2650), RPMI 1640 (Cellgro, Cat #10-040-CM), Fetal Bovine Serum (Sigma, Cat # F4135), Albumin From Bovine Serum (BSA) (Sigma-Aldrich, Cat # A7906), LPS (Serotype K-235, Sigma, Product Number L 2143), IFNγ (Peprotech, Cat #300-02), Capture antibody: Human IL-23p19 ELISA (e-Bioscience, Cat. #14-7238-85), Detection antibody: Primary Mouse Biotinylated anti-human IL-12 (p40/p70) (e-Bioscience, Cat. #13-7129-85), Secondary HRP-conjugated Streptavidin (R&D Systems, Cat # DY998), 1×PBST Washing Buffer (PBS-Tween tablet) (VWR International, Cat #80058-558), ELISA Blocking Buffer (PBS with 1% BSA), ELISA Dilution Buffer (PBS with 1% BSA), 384 Well Flat-Bottom, MaxiSorp Black Immuno Plates (Thermo Scientific, Cat #12-565-346), 384 Well Flat-Bottom, White Tissue Culture Plates (Thermo Scientific, Cat #12-565-343), Super Signal ELISA Pico Chemiluminescent Substrate (Thermo Scientific, Cat #37070), Cell Titer Glo reagent (Promega, Cat # G7573), Positive control, IKK2VI inhibitor (Calbiochem, Cat #401483), AquaMax 4000 plate washer (Molecular Devices), Luminometer, Wallac Victor2 1420 Multilabel Counter.
On day 1, 50K/well THP-1 cells were seeded and primed with IFNγ (50 ng/mL) in 384-well plates for about 18 hours in RPMI media with 10% FBS. On day 2, the compound was serially diluted in DMSO from 5 mM in 3-fold dilutions, and then diluted 1:125 in RPMI media with 10% FBS. 50 μL/well 2× compound was added to 50 μL/well THP-1 cells (with IFNγ primed) in duplicate in 384 well tissue culture plates. The cells were pre-incubated with compound for 1 hour at 37° C., 5% CO2 before addition of 10 μL/well 11×LPS to give a final concentration of 1 μg/mL LPS. Day 3, after stimulation for 18 hours at 37° C., 5% CO2, the assay plate was centrifuged and 70 μL/well supernatant was harvested. IL-23p19 protein in 70 μL/well of supernatant was measured by sandwich ELISA, and 25 μl/well Cell Titer Glo reagent was added to the remaining cells to measure compound toxicity.
Human IL-23p19 Sandwich ELISA:
Maxisorp immuno ELISA plates were pre-coated with 25 μL/well of anti-IL-23p19 capture antibody (2.5 ug/mL) in PBS overnight at room temperature. After washing with 1×PBST, the plates were blocked using 100 μL/well of 1% BSA in PBS for 2 hours at room temperature. The plates were washed three times with 1×PBST and 70 μL/well supernatant were added. The plates were incubated at room temperature for 2 hours with shaking and washed three times with 1×PBST. 25 μL/well of biotin labeled anti-IL-12 (p40/p70) detection antibody (100 ng/mL) in PBS with 1% BSA was added and the plates were incubated at room temperature for 2 hours with shaking. After washing three times with 1×PBST, 25 μL/well of streptavidin-HRP (1:200) in PBS with 1% BSA was added and the plates were incubated at room temperature for 20 minutes with shaking. The plates were washed three times with 1×PBST and 25 μL/well of Super Signal ELISA Pico Chemiluminescent Substrate were added. The plates were read with a luminometer, and the chemiluminescence values were entered into Athena (Rigel) for curve fitting, EC50 calculation, and database storage.

Usually EC50 stands for the midpoint of the concentration-response curve. `O=C(Nc1cc(CCN2CCOCC2)c(F)cc1N1CCCCC1)c1csc(-c2cn[nH]c2)n1` [I-32, N-(4-fluoro-5-(2-morpholinoethyl)-2-(piperidin-1-yl)phenyl)-2-(1H-pyrazol-4-yl)thiazole-4-carboxamide]: the half-maximal effective concentration (EC50) in experiment [1] turned out to be 324 nM; in experiment [2], 173 nM.

Consider `O=C(Nc1cc(C(F)(F)CN2CCOCC2)ccc1N1CCCCC1)c1ccc(-c2cn[nH]c2)o1` [I-34, N-(5-(1,1-difluoro-2-morpholinoethyl)-2-(piperidin-1-yl)phenyl)-5-(1H-pyrazol-4-yl)furan-2-carboxamide], for which the results for the EC50 in experiment [1] and in experiment [2] were 6620 nM and 1540 nM, respectively.

Consider `O=C(Nc1cc(C(F)(F)CN2CCOCC2)ccc1N1CCCCC1)c1csc(-c2cn[nH]c2)n1` [I-35, N-(5-(1,1-difluoro-2-morpholinoethyl)-2-(piperidin-1-yl)phenyl)-2-(1H-pyrazol-4-yl)thiazole-4-carboxamide], for which the EC50 turned out to be 2600 nM in experiment [1] and 1080 nM in experiment [2].

In the case of `O=C(Nc1ccc(N2CCOCC2)cc1N1CCCCC1)c1cccc(-c2cn[nH]c2)n1` [I-36, N-(4-morpholino-2-(piperidin-1-yl)phenyl)-6-(1H-pyrazol-4-yl)picolinamide], the EC50 in experiment [1] was found to be 1300 nM; in experiment [2], 2720 nM.

On to `O=C(Nc1ccc(N2CCOCC2)cc1N1CCCCC1)c1ccc(-c2cn[nH]c2)o1` [I-37, N-(4-morpholino-2-(piperidin-1-yl)phenyl)-5-(1H-pyrazol-4-yl)furan-2-carboxamide], for which the EC50 amounted to 153 nM in experiment [1] and 262 nM in experiment [2].

For the compound `O=C(Nc1ccc(N2CCOCC2)cc1N1CCCCC1)c1csc(-c2cn[nH]c2)n1` [I-38, N-(4-morpholino-2-(piperidin-1-yl)phenyl)-2-(1H-pyrazol-4-yl)thiazole-4-carboxamide], the EC50 in experiment [1] was 3980 nM; in experiment [2], 31000 nM.

For `COc1ccc(N2CCOCC2)cc1NC(=O)c1cccc(-c2cn[nH]c2)n1` [I-39, N-(2-methoxy-5-morpholinophenyl)-6-(1H-pyrazol-4-yl)picolinamide], the EC50 came to 3230 nM in experiment [1] and 6590 nM in experiment [2].

Consider `COc1ccc(N2CCOCC2)cc1NC(=O)c1csc(-c2cn[nH]c2)n1` [I-41, N-(2-methoxy-5-morpholinophenyl)-2-(1H-pyrazol-4-yl)thiazole-4-carboxamide], for which the EC50 in experiment [1] was 9220 nM; in experiment [2] it was 3920 nM.

Consider `O=C(Nc1cnc(N2CCOCC2)cc1N1CCCCC1)c1cccc(-c2cn[nH]c2)n1` [I-42, N-(6-morpholino-4-(piperidin-1-yl)pyridin-3-yl)-6-(1H-pyrazol-4-yl)picolinamide], for which the EC50 in experiment [1] was found to be 3080 nM; in experiment [2] it was 1040 nM.

As to `O=C(Nc1cnc(N2CCOCC2)cc1N1CCCCC1)c1ccc(-c2cn[nH]c2)o1` [I-43, N-(6-morpholino-4-(piperidin-1-yl)pyridin-3-yl)-5-(1H-pyrazol-4-yl)furan-2-carboxamide], the EC50 in experiment [1] was 3450 nM; in experiment [2], 2690 nM.

In the case of `O=C(Nc1cnc(N2CCOCC2)cc1N1CCCCC1)c1csc(-c2cn[nH]c2)n1` [I-44, N-(6-morpholino-4-(piperidin-1-yl)pyridin-3-yl)-2-(1H-pyrazol-4-yl)thiazole-4-carboxamide], the EC50 in experiment [1] was found to be 229 nM; in experiment [2], 222 nM.

Regarding `O=C(Nc1ccc(C(=O)N2CCOCC2)cc1N1CCCCC1)c1cccc(-c2cn[nH]c2)n1` [I-45, N-(4-(morpholine-4-carbonyl)-2-(piperidin-1-yl)phenyl)-6-(1H-pyrazol-4-yl)picolinamide], the figures for the concentration giving a half-maximal response (EC50) in experiment [1] and in experiment [2] were 84 nM and 117 nM, respectively.

Take `O=C(Nc1ccc(C(=O)N2CCOCC2)cc1N1CCCCC1)c1ccc(-c2cn[nH]c2)o1` [I-46, N-(4-(morpholine-4-carbonyl)-2-(piperidin-1-yl)phenyl)-5-(1H-pyrazol-4-yl)furan-2-carboxamide]: the figures for the half-maximal effective concentration (EC50) in experiment [1] and in experiment [2] were 2660 nM and 1360 nM, respectively.

For `O=C(Nc1ccc(C(=O)N2CCOCC2)cc1N1CCCCC1)c1csc(-c2cn[nH]c2)n1` [I-47, N-(4-(morpholine-4-carbonyl)-2-(piperidin-1-yl)phenyl)-2-(1H-pyrazol-4-yl)thiazole-4-carboxamide], the EC50 was 2460 nM in experiment [1] and 164 nM in experiment [2].

Take `O=C(Nc1ccc(CN2CCOCC2)cc1N1CCCCC1)c1cccc(-c2cn[nH]c2)n1` [I-48, N-(4-(morpholinomethyl)-2-(piperidin-1-yl)phenyl)-6-(1H-pyrazol-4-yl)picolinamide]: the EC50 amounted to 468 nM in experiment [1] and 177 nM in experiment [2].

Regarding `O=C(Nc1ccc(CN2CCOCC2)cc1N1CCCCC1)c1ccc(-c2cn[nH]c2)o1` [I-49, N-(4-(morpholinomethyl)-2-(piperidin-1-yl)phenyl)-5-(1H-pyrazol-4-yl)furan-2-carboxamide], the values for the EC50 in experiment [1] and in experiment [2] were 2960 nM and 1270 nM, respectively.

The values are drawn from patent US10590121B2, “Kinase inhibitors and methods for making and using” (Rigel Pharmaceuticals, Inc., priority 2017, dated 2020).
